US20240327392A1, “HETEROCYCLOALKYL-SUBSTITUTED POLYHETEROAZOLE DERIVATIVES AS MEDICAMENTS FOR TREATING AND/OR PREVENTING RS VIRUS INFECTIONS” (ALBIUS SCIENCES ALPHA PRIVATE LIMITED, priority 2021, published 2024)

system: human RS virus A2 strain; assay: In vitro test for anti-RS virus proliferation inhibitory activity (quantitative RT-PCR of RS virus RNA copy number in infected Vero cells); type: cell-based; settings: 72 h; Vero cells infected with human RS virus A2 strain, 3 days of incubation, RS virus N gene RNA copy number by quantitative RT-PCR; read-out: Anti-RS virus Activity
Experimental: A mixture of Vero cells (3.4×10^5 cells/mL) and human RS virus A2 strain (1.7×10^4 TCID50/mL) (EMEM medium supplemented with 10% FCS) was added to a 96-well plate at 50 μL/well, and the 10% FCS-supplemented EMEM medium adjusted to the desired final concentration of the compounds to be tested was added at 50 μL/well, followed by incubating the plate at 37° C. in the presence of 5% CO2 at 37° C. After 3 days of incubation, the supernatant was removed, the cells were washed with PBS(−), and the cell lysis buffer supplied with the SingleShot (registered trademark) Cell Lysis Kit (Bio-Rad) was added dropwise at 50 μL/well to lysis the cells thereby providing the cell lysate.
Human RS virus RNA copy number in the cell lysate was determined by quantitative RT-PCR using iTaq Universal SYBR Green One-Step Kit (Bio-Rad). Specifically, primers targeting human RS virus N gene (Rameix-Welti et al, Nat Commun5: 5104, 2014. doi: 10.1038/ncomms6104) was used to prepare the reaction solution according to the instructions provided with the kit, and a 96-well PikoReal Real-Time PCR System (TCR0096, Thermo Fisher Scientific) was used to detect PCR reaction and signal assay.
The copy number was calculated by the relative method using the comparative Ct method using compound-free virus-infected cells as controls.

First: CC(C)(C)OC(=O)N1CCCC[C@H]1c1nc(CCCc2ccccc2)no1 [Compound 2-1, 3-(3-phenylpropyl)-5-[(2S)-1-tert-butoxycarbonylpiperidin-2-yl]-1,2,4-oxadiazole]
Second: CC(C)(C)OC(=O)N1CCC[C@H]1c1nc(CCCc2ccccc2)no1 [Compound 1-1, 3-(3-phenylpropyl)-5-[(2S)-1-tert-butoxycarbonylpyrrolidin-2-yl]-1,2,4-oxadiazole]
The IC50 of the first is lower: 10 to 50 µM for the first, > 50 µM for the second. The first is the more potent here.

First: O=C(N1CCC[C@H]1c1nc(CCCc2ccccc2)no1)C(F)(F)F [1C′, 3-(3-phenylpropyl)-5-[(2S)-1-trifluoroacetylpyrrolidin-2-yl]-1,2,4-oxadiazole]
Second: CC(C)CS(=O)(=O)N1C[C@H](O)C[C@H]1c1nc(CCCc2ccccc2)no1 [Compound 3A, 3-(3-phenylpropyl)-5-[(2S,4R)-4-hydroxy-1-isobutylsulfonylpyrrolidin-2-yl]-1,2,4-oxadiazole]
The IC50 of the first is lower: < 10 µM for the first, > 50 µM for the second. The first is the more potent here.

same assay, conditions: 72 h; Vero cells infected with human RS virus A2 strain, 3 days of incubation, RS virus RNA copy number by quantitative RT-PCR; read-out: Anti-RS virus Activity

First: CC(C)(C)OC(=O)N1CCC(CS(=O)(=O)N2CC(CC3CCC3)CC2c2nc(CCCc3ccccc3)no2)CC1 (stereo not drawn) [Compound 6AN, tert-buthyl 4-(((4-(cyclobuthylmethyl)-2-(3-(3-phenylpropyl)-1,2,4-oxadiazole-5-yl)pyrrolidin-1-yl)sulfonyl)methyl)piperidin-1-carboxylate]
Second: CC(C)(C)OC(=O)N1CC(CS(=O)(=O)N2CC(CC3CCC3)CC2c2nc(CCCc3ccccc3)no2)C1 (stereo not drawn) [Compound 6AM, tert-buthyl 3-(((4-(cyclobuthylmethyl)-2-(3-(3-phenylpropyl)-1,2,4-oxadiazole-5-yl)pyrrolidin-1-yl)sulfonyl)methyl)azetidin-1-carboxylate]
The IC50 of the first is higher: 10 to 50 µM for the first, < 10 µM for the second.

`CC(C)CS(=O)(=O)N1CC(c2ccccc2)C[C@H]1c1nc(CCCc2ccccc2)no1` (stereo in doubt) [Compound 7A, 3-(3-phenylpropyl)-5-[(2S,4S)-1-isobutylsulfonyl-4-phenylpyrrolidin-2-yl]-1,2,4-oxadiazole] and `CS(=O)(=O)N1CC(c2ccccc2)C[C@H]1c1nc(CCCc2ccccc2)no1` (stereo in doubt) [Compound 7C, 3-(3-phenylpropyl)-5-[(2S,4S)-1-methanesulfonyl-4-phenylpyrrolidin-2-yl]-1,2,4-oxadiazole] cannot be ordered by IC50: < 10 µM for the first, < 10 µM for the second.

`CC(C)(C)OC(=O)N1[C@@H]2CC[C@@H](C2)[C@H]1c1nnc(CCc2ccncc2)[nH]1` [Compound 25-1, Tert-butyl (1R,3S,4S)-3-(5-(2-(pyridin-4-yl)ethyl)-4H-1,2,4-triazol-3-yl)-2-azabicyclo[2.2.1]heptane-2-carboxylate] and `CC(C)(C)OC(=O)N1[C@@H]2CC[C@@H](C2)[C@H]1c1nnc(Cc2c[nH]c3ccccc23)[nH]1` [Compound 24-1, Tert-butyl (1R,3S,4S)-3-(5-((1H-indol-3-yl)methyl)-4H-1,2,4-triazol-3-yl)-2-azabicyclo[2.2.1]heptane-2-carboxylate] fall in the same range of IC50: 10 to 50 µM for the first, 10 to 50 µM for the second.

Compared with `Cc1sc([C@@H]2CCCCN2S(=O)(=O)C2CCCCC2)nc1C(=O)O` [Compound 36B, (S)-2-(1-(Cyclohexylsulfonyl)piperidin-2-yl)-5-methyl thiazole-4-carboxylic acid], `COC(=O)c1nc([C@@H]2CCCCN2S(=O)(=O)C2CCCCC2)oc1C` [Compound 32B, Methyl (S)-2-(1-(cyclohexylsulfonyl)piperidin-2-yl)-5-methyloxazole-4-carboxylate] is higher in IC50: < 10 µM for the first, 10 to 50 µM for the second. The first is the more potent here.

`O=C(N1CC2(CC2)C[C@H]1c1nc(CCCc2ccccc2)no1)C(F)(F)F` [5D′, 3-(3-Phenylpropyl)-5-{(6S)-5-trifluoroacetyl-5-azaspiro[2.4]hept-6-yl}-1,2,4-oxadiazole] and `CC(C)CS(=O)(=O)N1CC2(CC2)C[C@H]1c1nc(CCCc2ccccc2)no1` [Compound 5A, 3-(3-phenylpropyl)-5-{(6S)-5-isobutylsulfonyl-5-azaspiro[2.4]hept-6-yl}-1,2,4-oxadiazole] cannot be ordered by IC50: < 10 µM for the first, < 10 µM for the second.

`CC(C)(C)OC(=O)N1CCC(S(=O)(=O)N2CC3(CC3)C[C@H]2c2nc(CCCc3ccccc3)no2)CC1` [Compound 5AO, tert-buthyl (S)-4-((6-(3-(3-phenylpropyl)-1,2,4-oxadiazole-5-yl)-5-azaspiro[2.4]heptan-5-yl)sulfonyl)piperidin-1-carboxylate] and `CC(C)(C)OC(=O)N1C[C@H](F)C[C@H]1c1nc(CCCc2ccccc2)no1` [Compound 8-1, 3-(3-phenylpropyl)-5-[(2S,4R)-1-tert-butoxycarbonyl-4-fluoropyrrolidin-2-yl]-1,2,4-oxadiazole] cannot be ordered by IC50: < 10 µM for the first, < 10 µM for the second.

First: CC(C)(C)NC(=O)N1C[C@H]2CC[C@]1(c1nc(CCc3ccncc3)no1)CC2 [Compound 13H, (1s, 4s)-N-(tert-butyl)-1-(3-(2-(pyridin-4-yl)ethyl)-1,2,4-oxadiazol-5-yl)-2-azabicyclo[2.2.2]octane-2-carboxamide]
Second: CS(=O)(=O)N1C[C@H]2CC[C@]1(c1nc(CCc3ccccc3)no1)CC2 [Compound 15C, 5-((1s,4s)-2-(methylsulfonyl)-2-azabicyclo[2.2.2]octan-1-yl)-3-phenethyl-1,2,4-oxadiazole]
The IC50 of the first is higher: > 50 µM for the first, 10 to 50 µM for the second. The second is the more potent here.

Compared with `c1ccc(CCCc2noc([C@@H]3CCCCN3Cc3ccccc3)n2)cc1` [Compound 2AA, (S)-5-(1-benzylpiperidin-2-yl)-3-(3-phenylpropyl)-1,2,4-oxadiazole], `O=S(=O)(c1ccccc1)N1CC(CC2CCC2)CC1c1nc(CCCc2ccccc2)no1` (stereo not drawn) [Compound 6D, 3-(3-phenylpropyl)-5-(1-benzenesulfonyl-4-cyclobutylmethylpyrrolidin-2-yl)-1,2,4-oxadiazole] is lower in IC50: 10 to 50 µM for the first, < 10 µM for the second. The second is the more potent here.

Compared with `CC(C)CS(=O)(=O)N1[C@@H]2CC[C@@H](C2)[C@H]1c1nc(CCc2ccccc2)no1` [Compound 14A, 5-((1R,3S,4S)-2-(isobutylsulfonyl)-2-azabicyclo[2.2.1]heptan-3-yl)-3-phenethyl-1,2,4-oxadiazole], `CC(C)CS(=O)(=O)N1CCC[C@H]1c1nc(CCc2ccccc2)no1` [Compound 9A, 3-(2-phenylethyl)-5-[(2S)-1-isobutylsulfonylpyrrolidin-2-yl]-1,2,4-oxadiazole] is higher in IC50: 10 to 50 µM for the first, > 50 µM for the second.

First: O=S(=O)(c1ccccc1)N1C[C@H](F)C[C@H]1c1nc(CCCc2ccccc2)no1 [Compound 8D, 3-(3-phenylpropyl)-5-[(2S,4R)-1-benzenesulfonyl-4-fluoropyrrolidin-2-yl]-1,2,4-oxadiazole]
Second: CS(=O)(=O)N1C[C@H](F)C[C@H]1c1nc(CCCc2ccccc2)no1 [Compound 8C, 3-(3-phenylpropyl)-5-[(2S,4R)-1-methanesulfonyl-4-fluoropyrrolidin-2-yl]-1,2,4-oxadiazole]
The IC50 of the first is lower: 10 to 50 µM for the first, > 50 µM for the second.

`O=C(NCc1noc([C@@H]2CCCN2S(=O)(=O)C2CCCCC2)n1)c1cccc2ccccc12` [Compound 11B, 3-[(1-naphthoylamino)methyl]-5-[(2S)-1-cyclohexylsulfonylpyrrolidin-2-yl]-1,2,4-oxadiazole] and `O=C(NCc1noc([C@@H]2CCCCN2S(=O)(=O)C2CCCCC2)n1)c1cccc2ccccc12` [Compound 26B, (S)—N-((5-(1-(cyclohexylsulfonyl)piperidin-2-yl)-1,2,4-oxadiazol-3-yl)methyl)-1-naphthamide] fall in the same range of IC50: 10 to 50 µM for the first, 10 to 50 µM for the second.

`O=S(=O)(c1ccc(F)cc1)N1CC2(CC2)C[C@H]1c1nc(CCCc2ccccc2)no1` [Compound 5AJ, (S)-5-(5-((4-fluorophenyl)sulfonyl)-5-azaspiro[2.4]heptan-6-yl)-3-(3-phenylpropyl)-1,2,4-oxadiazole] and `O=S(=O)(c1ccc(F)cc1)N1CCC[C@H]1c1cn(Cc2ccccc2)nn1` [Compound 39AJ, (S)-1-Benzyl-4-(1-((4-fluorophenyl)sulfonyl)pyrrolidin-2-yl)-1H-1,2,3-triazole] cannot be ordered by IC50: < 10 µM for the first, < 10 µM for the second.

`O=S(=O)(N1CCCCC1)N1[C@@H]2CC[C@@H](C2)[C@H]1c1nnc(CCc2ccncc2)[nH]1` [Compound 25AD, (1R,3S,4S)-2-(piperidine-1-ylsulfonyl)-3-(5-(2-(pyridin-4-yl)ethyl)-4H-1,2,4-triazol-3-yl)-2-azabicyclo[2.2.1]heptane] and `COc1ccc(C(=O)NCc2noc([C@@H]3CCCCN3S(=O)(=O)C3CCCCC3)n2)cc1OC` [Compound 27B, (S)—N-((5-(1-(cyclohexylsulfonyl)piperidin-2-yl)-1,2,4-oxadiazol-3-yl)methyl)-3,4-dimethoxybenzamide] fall in the same range of IC50: 10 to 50 µM for the first, 10 to 50 µM for the second.

`CC(C)CS(=O)(=O)N1CCC[C@H]1c1nc(CNC(=O)c2cccc3ccccc23)no1` [Compound 11A, 3-[(1-naphthoylamino)methyl]-5-[(2S)-1-isobutylsulfonylpyrrolidin-2-yl]-1,2,4-oxadiazole] and `CC(C)CS(=O)(=O)N1CC(CC2CCC2)CC1c1nc(CCCc2ccccc2)no1` (stereo not drawn) [Compound 6A, 3-(3-phenylpropyl)-5-(1-isobutylsulfonyl-4-cyclobutylmethylpyrrolidin-2-yl)-1,2,4-oxadiazole] cannot be ordered by IC50: < 10 µM for the first, < 10 µM for the second.

In the case of `CC(C)(C)OC(=O)N1CCCC[C@H]1c1nnc(CCCc2ccccc2)o1` [Compound 18-1, Tert-butyl (S)-2-(5-(3-phenylpropyl)-1,3,4-oxadiazol-2-yl) piperidine-1-carboxylate], the IC50 is reported as < 10 µM.
